Source: ChEMBL document CHEMBL1154649, “Anti-HBV agents. Part 3: preliminary structure-activity relationships of tetra-acylalisol A derivatives as potent hepatitis B virus inhibitors” (Bioorg Med Chem Lett, 2009)
pIC50: −log10 of the molar value.

What was measured:
[1] = system: Hepatitis B virus; assay: Antiviral activity against HBV assessed as inhibition of viral surface antigen secretion; assay type: functional, organism-based
[2] = Cytotoxicity against human HepG2(2.2.15) cells; assay type: cell-based
[3] = system: Hepatitis B virus; assay: Antiviral activity against HBV assessed as inhibition of viral early antigen secretion; assay type: functional, organism-based
[4] = Selectivity index, ratio of CC50 for human HepG2(2.2.15) cells to IC50 for HBV surface antigen secretion; assay type: functional
[5] = Selectivity index, ratio of CC50 for human HepG2(2.2.15) cells to IC50 for HBV early antigen secretion; assay type: functional

Structure (SMILES) | pIC50 [1] | pIC50 [3] | CC50 [2] [mM] | Ratio CC50/IC50 [4] | Ratio CC50/IC50 [5]
C[C@H](C[C@H](OC(=O)[C@H]1CCC(=O)O1)[C@@H](OC(=O)[C@H]1CCC(=O)O1)C(C)(C)OC(=O)[C@@H]1CCC(=O)O1)C1=C2C[C@H](OC(=O)[C@@H]3CCC(=O)O3)[C@H]3[C@@]4(C)CCC(=O)C(C)(C)[C@@H]4CC[C@]3(C)[C@@]2(C)CC1 | < 2.80 | < 2.80 | > 1.6 | – | –
CCCCCCCC(=O)O[C@@H](C[C@@H](C)C1=C2C[C@H](OC(=O)CCCCCCC)[C@H]3[C@@]4(C)CCC(=O)C(C)(C)[C@@H]4CC[C@]3(C)[C@@]2(C)CC1)[C@@H](OC(=O)CCCCCCC)C(C)(C)OC(=O)CCCCCCC | < 2.80 | < 2.80 | > 1.6 | – | –
CCC(=O)O[C@@H](C[C@@H](C)C1=C2C[C@H](OC(=O)CC)[C@H]3[C@@]4(C)CCC(=O)C(C)(C)[C@@H]4CC[C@]3(C)[C@@]2(C)CC1)[C@@H](OC(=O)CC)C(C)(C)OC(=O)CC | 3.05 | < 2.72 | > 1.9 | >2.1 | –
CC(=O)OC(C)(C)[C@H](OC(=O)C(C)C)[C@H](C[C@@H](C)C1=C2C[C@H](OC(=O)C(C)C)[C@H]3[C@@]4(C)CCC(=O)C(C)(C)[C@@H]4CC[C@]3(C)[C@@]2(C)CC1)OC(=O)C(C)C | < 2.72 | 2.82 | > 1.9 | – | >1.3
C[C@H](C[C@H](OC(=O)c1ccc(Cl)cc1)[C@@H](OC(=O)c1ccc(Cl)cc1)C(C)(C)OC(=O)c1ccc(Cl)cc1)C1=C2C[C@H](OC(=O)c3ccc(Cl)cc3)[C@H]3[C@@]4(C)CCC(=O)C(C)(C)[C@@H]4CC[C@]3(C)[C@@]2(C)CC1 | 3.32 | < 2.85 | > 1.4 | >2.9 | –
CCCCC(=O)O[C@@H](C[C@@H](C)C1=C2C[C@H](OC(=O)CCCC)[C@H]3[C@@]4(C)CCC(=O)C(C)(C)[C@@H]4CC[C@]3(C)[C@@]2(C)CC1)[C@@H](OC(=O)CCCC)C(C)(C)OC(=O)CCCC | < 2.85 | < 2.85 | > 1.4 | – | –
C[C@H](C[C@H](OC(=O)CCC1CCCCC1)[C@@H](OC(=O)CCC1CCCCC1)C(C)(C)OC(=O)CCC1CCCCC1)C1=C2C[C@H](OC(=O)CCC3CCCCC3)[C@H]3[C@@]4(C)CCC(=O)C(C)(C)[C@@H]4CC[C@]3(C)[C@@]2(C)CC1 | < 2.77 | < 2.77 | > 1.7 | – | –
C[C@H](C[C@H](OC(=O)c1ccccc1)[C@@H](OC(=O)c1ccccc1)C(C)(C)OC(=O)c1ccccc1)C1=C2C[C@H](OC(=O)c3ccccc3)[C@H]3[C@@]4(C)CCC(=O)C(C)(C)[C@@H]4CC[C@]3(C)[C@@]2(C)CC1 | < 2.85 | < 2.85 | > 1.4 | – | –
C[C@H](C[C@H](O[Si](C)(C)C)[C@@H](O[Si](C)(C)C)C(C)(C)O[Si](C)(C)C)C1=C2C[C@H](O[Si](C)(C)C)[C@H]3[C@@]4(C)CCC(=O)C(C)(C)[C@@H]4CC[C@]3(C)[C@@]2(C)CC1 | 4.70 | < 4.29 | 0.051 | 2.5 | <1
COCC(=O)OC(C)(C)[C@H](OC(C)=O)[C@H](C[C@@H](C)C1=C2C[C@H](OC(C)=O)[C@H]3[C@@]4(C)CCC(=O)C(C)(C)[C@@H]4CC[C@]3(C)[C@@]2(C)CC1)OC(C)=O | 5.36 | 4.92 | 0.92 | 209 | 77
CCOCC(=O)OC(C)(C)[C@H](OC(C)=O)[C@H](C[C@@H](C)C1=C2C[C@H](OC(C)=O)[C@H]3[C@@]4(C)CCC(=O)C(C)(C)[C@@H]4CC[C@]3(C)[C@@]2(C)CC1)OC(C)=O | 4.85 | 4.74 | > 2.8 | >200 | >156
CCC(=O)O[C@@H](C[C@@H](C)C1=C2C[C@H](OC(=O)CC)[C@H]3[C@@]4(C)CCC(=O)C(C)(C)[C@@H]4CC[C@]3(C)[C@@]2(C)CC1)[C@@H](OC(=O)CC)C(C)(C)OC(C)=O | 3.34 | 4.07 | > 1.7 | >3.7 | >20
CCC(=O)O[C@@H](C[C@@H](C)[C@]12CC[C@@]3(C)[C@@]1(C[C@H](OC(=O)CC)[C@H]1[C@@]4(C)CCC(=O)C(C)(C)[C@@H]4CC[C@@]13C)O2)[C@@H](OC(=O)CC)C(C)(C)OC(=O)CC | < 2.66 | 2.89 | > 2.2 | – | >1.7
CC(=O)OC1=CC[C@@]2(C)[C@@H](CC[C@@]3(C)[C@H]2[C@@H](OC(C)=O)CC2=C([C@H](C)C[C@H](OC(C)=O)[C@@H](OC(C)=O)C(C)(C)OC(C)=O)CC[C@@]23C)C1(C)C | < 2.68 | 3.55 | > 2.1 | – | >7.5

More lines, main results first:

pIC50 [1] | pIC50 [3] | Structure (SMILES) | CC50 [2] [mM] | Ratio CC50/IC50 [4] | Ratio CC50/IC50 [5]
< 2.74 | 2.74 | CCCC(=O)O[C@@H](C[C@@H](C)C1=C2C[C@H](OC(=O)CCC)[C@H]3[C@@]4(C)CCC(=O)C(C)(C)[C@@H]4CC[C@]3(C)[C@@]2(C)CC1)[C@@H](OC(=O)CCC)C(C)(C)OC(=O)CCC | > 1.8 | – | –
< 2.70 | < 2.70 | CC(C)CC(=O)O[C@@H](C[C@@H](C)C1=C2C[C@H](OC(=O)CC(C)C)[C@H]3[C@@]4(C)CCC(=O)C(C)(C)[C@@H]4CC[C@]3(C)[C@@]2(C)CC1)[C@@H](OC(=O)CC(C)C)C(C)(C)OC(=O)CC(C)C | > 2 | – | –
< 2.85 | < 2.85 | C[C@H](C[C@H](OC(=O)c1ccccc1I)[C@@H](OC(=O)c1ccccc1I)C(C)(C)OC(=O)c1ccccc1I)C1=C2C[C@H](OC(=O)c3ccccc3I)[C@H]3[C@@]4(C)CCC(=O)C(C)(C)[C@@H]4CC[C@]3(C)[C@@]2(C)CC1 | > 1.4 | – | –
< 2.96 | < 2.96 | C[C@H](C[C@H](OC(=O)c1cccc([N+](=O)[O-])c1)[C@@H](OC(=O)c1cccc([N+](=O)[O-])c1)C(C)(C)OC(=O)c1cccc([N+](=O)[O-])c1)C1=C2C[C@H](OC(=O)c3cccc([N+](=O)[O-])c3)[C@H]3[C@@]4(C)CCC(=O)C(C)(C)[C@@H]4CC[C@]3(C)[C@@]2(C)CC1 | > 1.1 | – | –
< 2.92 | < 2.92 | C[C@H](C[C@H](OC(=O)/C=C/c1ccccc1)[C@@H](OC(=O)/C=C/c1ccccc1)C(C)(C)OC(=O)/C=C/c1ccccc1)C1=C2C[C@H](OC(=O)/C=C/c3ccccc3)[C@H]3[C@@]4(C)CCC(=O)C(C)(C)[C@@H]4CC[C@]3(C)[C@@]2(C)CC1 | > 1.2 | – | –
< 2.85 | < 2.85 | C[C@H](C[C@H](OC(=O)COc1ccccc1)[C@@H](OC(=O)COc1ccccc1)C(C)(C)OC(=O)COc1ccccc1)C1=C2C[C@H](OC(=O)COc3ccccc3)[C@H]3[C@@]4(C)CCC(=O)C(C)(C)[C@@H]4CC[C@]3(C)[C@@]2(C)CC1 | > 1.4 | – | –
< 2.85 | < 2.85 | C[C@H](C[C@H](OC(=O)/C=C/c1ccccc1Cl)[C@@H](OC(=O)/C=C/c1ccccc1Cl)C(C)(C)OC(=O)/C=C/c1ccccc1Cl)C1=C2C[C@H](OC(=O)/C=C/c3ccccc3Cl)[C@H]3[C@@]4(C)CCC(=O)C(C)(C)[C@@H]4CC[C@]3(C)[C@@]2(C)CC1 | > 1.4 | – | –
< 2.89 | < 2.89 | C[C@H](C[C@H](OC(=O)CN1C(=O)c2ccccc2C1=O)[C@@H](OC(=O)CN1C(=O)c2ccccc2C1=O)C(C)(C)OC(=O)CN1C(=O)c2ccccc2C1=O)C1=C2C[C@H](OC(=O)CN3C(=O)c4ccccc4C3=O)[C@H]3[C@@]4(C)CCC(=O)C(C)(C)[C@@H]4CC[C@]3(C)[C@@]2(C)CC1 | > 1.3 | – | –
< 2.72 | < 2.72 | CCCC(=O)O[C@@H](C[C@@H](C)[C@]12CC[C@@]3(C)[C@@]1(C[C@H](OC(=O)CCC)[C@H]1[C@@]4(C)CCC(=O)C(C)(C)[C@@H]4CC[C@@]13C)O2)[C@@H](OC(=O)CCC)C(C)(C)OC(=O)CCC | > 1.9 | – | –
< 2.68 | < 2.68 | C[C@H](C[C@H](OC(=O)C1CC1)[C@@H](OC(=O)C1CC1)C(C)(C)OC(=O)C1CC1)C1=C2C[C@H](OC(=O)C3CC3)[C@H]3[C@@]4(C)CCC(=O)C(C)(C)[C@@H]4CC[C@]3(C)[C@@]2(C)CC1 | > 2.1 | – | –
< 3.00 | < 3.00 | C[C@H](C[C@H](OC(=O)c1ccc(Cl)cc1Cl)[C@@H](OC(=O)c1ccc(Cl)cc1Cl)C(C)(C)OC(=O)c1ccc(Cl)cc1Cl)C1=C2C[C@H](OC(=O)c3ccc(Cl)cc3Cl)[C@H]3[C@@]4(C)CCC(=O)C(C)(C)[C@@H]4CC[C@]3(C)[C@@]2(C)CC1 | > 1 | – | –
< 2.92 | < 2.92 | C[C@H](C[C@H](OC(=O)COc1cc(Cl)c(Cl)cc1Cl)[C@@H](OC(=O)COc1cc(Cl)c(Cl)cc1Cl)C(C)(C)OC(=O)COc1cc(Cl)c(Cl)cc1Cl)C1=C2C[C@H](OC(=O)COc3cc(Cl)c(Cl)cc3Cl)[C@H]3[C@@]4(C)CCC(=O)C(C)(C)[C@@H]4CC[C@]3(C)[C@@]2(C)CC1 | > 1.2 | – | –
< 2.77 | < 2.77 | CC(=O)OC(C)(C)[C@H](OC(=O)c1ccccc1)[C@H](C[C@@H](C)C1=C2C[C@H](OC(=O)c3ccccc3)[C@H]3[C@@]4(C)CCC(=O)C(C)(C)[C@@H]4CC[C@]3(C)[C@@]2(C)CC1)OC(=O)c1ccccc1 | > 1.7 | – | –
4.34 | 4.21 | CC(=O)O[C@@H](C[C@@H](C)[C@]12CC[C@@]3(C)[C@@]1(C[C@H](OC(C)=O)[C@H]1[C@@]4(C)CCC(=O)C(C)(C)[C@@H]4CC[C@@]13C)O2)[C@@H](OC(C)=O)C(C)(C)OC(C)=O | > 4 | >87 | >66
< 2.77 | 2.96 | C[C@H](C[C@H](OC(=O)c1ccccc1)[C@@H](OC(=O)c1ccccc1)C(C)(C)OC(=O)c1ccccc1)[C@]12CC[C@@]3(C)[C@@]1(C[C@H](OC(=O)c1ccccc1)[C@H]1[C@@]4(C)CCC(=O)C(C)(C)[C@@H]4CC[C@@]13C)O2 | > 1.7 | – | >1.5
